According to patent US7285556B2, “Thienopyrimidine-based inhibitors of the src family” (Board of Regents, The University of Texas Systems, priority 2000, dated 2007):
Like-named read-outs stand apart in the source and are kept apart here.

Assays:
Recombinant human Src = biological target: T1, Recombinant human Src (Homo sapiens, UniProt P12931); experiment: Src tyrosine kinase activity, poly E4Y and 32P-ATP; type: biochemical
T1 construct: made in house; host or cells: baculovirus-insect cell system
Procedure, shortened: (§1)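 Recombinant GST-Csk (E. coli) or baculovirus-expressed human Src assayed on poly E4Y in 0.15 M EPPS-NaOH pH 8.0, 6 mM MgCl2, 0.2 mM γ32P-ATP, 10% glycerol, 0.1% Triton X-100. Read-out is 32P incorporation into poly E4Y; for ATP variation (0–250 μM), poly E4Y held at 150 μg/ml.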

N12 neuronal Src variant = biological target: T2, N12 neuronal Src variant (Homo sapiens, UniProt P12931); experiment: Testing against neuronal Src variant N12; type: biochemical; conditions: Table 5
T2 construct: made in house
Experimental: (§2) The tyrosine kinase activity of Src, Csk and FGFr was determined using poly E4Y and ^32P-ATP. Briefly, enzymes were assayed in a reaction mixture consisting of 0.15 M EPPS-NaOH (pH 8.0) with 6 mM MgCl2, 0.2 mM γ^32P-ATP (0.2-0.4 mCi/μmol), 10% glycerol, 0.1% Triton X-100, and poly E4Y. Poly E4Y is a synthetic peptide whose phosphorylation is measured in this assay by the addition of the radioactively labeled phosphate from the ATP (Budde et al., 1995). […] When ATP was varied (0, 50, 100 and 250 μM), poly E4Y was kept constant at 150 μg/ml.
(§3) Thienopyrimidine-based compounds were also tested against neuronal Src variants (Table 5).

N23 neuronal Src variant = biological target: T3, N23 neuronal Src variant (Homo sapiens, UniProt P12931); experiment: Testing against neuronal Src variant N23; type: biochemical; conditions: Table 5
T3 construct: made in house
Experimental: as §2, §3

[1] = system: colon adenocarcinoma cell line, HT29; experiment: MTT reduction assay, in vitro drug cytotoxicity; type: cell-based; conditions: Homo sapiens, HT-29, 72 hours incubation, read-out: IC50, HT-29 cells
Experimental: Compounds synthesized using the methods described above were tested using a standard MTT assay (Green et al., 1984) against a colon adenocarcinoma cell line, HT29. A human ovarian cancer cell line, SKOv-3 may also be used. The use of an MTT assay using these cells is recognized as an accepted assay for anti-tumor activity by those in the field. The in vitro activity of Src inhibitors of the present invention against diseases other than cancer may be assayed by methods known to those of skill in the art.
In vitro drug cytotoxicities against a colon adenocarcinoma cell line, HT29 was assessed by using the MTT reduction assay, as previously reported (Green et al., 1984). A human ovarian cancer cell line, SKOv-3 may also be used. The MTT dye was obtained from Sigma Chemical Co. (St. Louis, Mo.). The drugs were dissolved in DMSO:PEG 300 (1:1). Neither DMSO or PEG 300 are toxic to cells at a concentration of 31.6 μg/ml. […] The optical density of each well was then measured with a microplate spectrophotometer at a wavelength of 570 nm with a reference cell at 650 nm. The percent cell viability was calculated by the following equation: % cell viability=(OD treated wells/OD control wells)×100
where OD is the mean optical density from four determinations. The percent cell viability values were plotted against the drug concentrations used, and the IC50 was calculated from the curve.

Csk = biological target: T4, Csk (Homo sapiens, UniProt P41240); experiment: Csk tyrosine kinase activity, poly E4Y and 32P-ATP; type: biochemical; conditions: screening assay, 50 μg/ml poly E4Y, 0.2 mM 32P-ATP
T4 construct: GST (glutathione-S-transferase) (N); made in house; host or cells: E. coli (pGEX vector)
Procedure, shortened: as §1

[2] = system: osteoclastic bone resorption; conditions: Rodan and Martin, 2000; cited from earlier work
[3] = Table 2, read-out: Src IC50 (especially good inhibitors of Src)
[4] = Table 5, N6 = Src, read-out: N6(Src) IC50
[5] = read-out: IC50 (preferred compounds for treatment of Src family-related disease)

T1 sequence (P12931 whole entry): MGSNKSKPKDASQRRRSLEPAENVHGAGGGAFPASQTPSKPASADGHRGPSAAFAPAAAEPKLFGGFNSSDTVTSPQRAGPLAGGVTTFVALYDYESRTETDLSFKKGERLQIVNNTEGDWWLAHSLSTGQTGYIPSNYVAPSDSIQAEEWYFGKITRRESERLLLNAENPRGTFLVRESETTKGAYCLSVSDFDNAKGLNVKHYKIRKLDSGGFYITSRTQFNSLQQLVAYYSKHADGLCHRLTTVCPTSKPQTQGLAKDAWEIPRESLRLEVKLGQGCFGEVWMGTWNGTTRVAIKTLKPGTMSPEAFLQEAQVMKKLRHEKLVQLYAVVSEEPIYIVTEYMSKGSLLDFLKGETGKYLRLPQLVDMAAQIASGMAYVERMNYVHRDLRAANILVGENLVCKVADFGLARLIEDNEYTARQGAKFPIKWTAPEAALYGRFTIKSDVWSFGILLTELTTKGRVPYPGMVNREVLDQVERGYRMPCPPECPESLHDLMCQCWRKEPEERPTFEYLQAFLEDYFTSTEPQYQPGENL
T2 sequence (P12931 1-542 isoform P12931-2): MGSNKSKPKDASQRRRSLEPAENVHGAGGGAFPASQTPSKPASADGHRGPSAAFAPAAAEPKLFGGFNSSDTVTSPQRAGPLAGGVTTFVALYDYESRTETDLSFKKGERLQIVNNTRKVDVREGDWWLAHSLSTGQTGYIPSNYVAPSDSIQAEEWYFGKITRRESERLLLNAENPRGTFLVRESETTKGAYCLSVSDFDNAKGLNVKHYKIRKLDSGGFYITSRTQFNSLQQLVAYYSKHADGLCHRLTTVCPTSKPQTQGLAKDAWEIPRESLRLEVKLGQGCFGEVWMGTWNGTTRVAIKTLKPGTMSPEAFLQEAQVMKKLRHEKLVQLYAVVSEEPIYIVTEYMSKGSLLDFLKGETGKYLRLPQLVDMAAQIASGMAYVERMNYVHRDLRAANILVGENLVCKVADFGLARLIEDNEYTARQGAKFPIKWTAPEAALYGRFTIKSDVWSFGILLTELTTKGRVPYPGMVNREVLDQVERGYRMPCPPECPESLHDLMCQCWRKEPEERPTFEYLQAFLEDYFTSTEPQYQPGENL
T3 sequence (P12931 1-553 isoform P12931-3): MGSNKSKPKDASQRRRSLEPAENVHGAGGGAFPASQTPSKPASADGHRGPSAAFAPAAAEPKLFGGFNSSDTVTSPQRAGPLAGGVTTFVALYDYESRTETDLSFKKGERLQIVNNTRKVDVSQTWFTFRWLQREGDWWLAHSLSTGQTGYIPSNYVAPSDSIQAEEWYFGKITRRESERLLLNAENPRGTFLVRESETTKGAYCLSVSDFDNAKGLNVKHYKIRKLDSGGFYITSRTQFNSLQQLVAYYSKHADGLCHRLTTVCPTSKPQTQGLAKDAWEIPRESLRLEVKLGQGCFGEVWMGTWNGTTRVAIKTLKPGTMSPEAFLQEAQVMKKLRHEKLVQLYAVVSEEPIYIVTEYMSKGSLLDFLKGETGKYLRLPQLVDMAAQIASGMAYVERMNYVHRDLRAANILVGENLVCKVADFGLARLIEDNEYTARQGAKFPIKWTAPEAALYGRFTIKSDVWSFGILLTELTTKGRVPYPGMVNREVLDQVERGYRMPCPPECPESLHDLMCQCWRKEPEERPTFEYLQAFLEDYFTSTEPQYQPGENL
T4 sequence (P41240 whole entry, species assumed): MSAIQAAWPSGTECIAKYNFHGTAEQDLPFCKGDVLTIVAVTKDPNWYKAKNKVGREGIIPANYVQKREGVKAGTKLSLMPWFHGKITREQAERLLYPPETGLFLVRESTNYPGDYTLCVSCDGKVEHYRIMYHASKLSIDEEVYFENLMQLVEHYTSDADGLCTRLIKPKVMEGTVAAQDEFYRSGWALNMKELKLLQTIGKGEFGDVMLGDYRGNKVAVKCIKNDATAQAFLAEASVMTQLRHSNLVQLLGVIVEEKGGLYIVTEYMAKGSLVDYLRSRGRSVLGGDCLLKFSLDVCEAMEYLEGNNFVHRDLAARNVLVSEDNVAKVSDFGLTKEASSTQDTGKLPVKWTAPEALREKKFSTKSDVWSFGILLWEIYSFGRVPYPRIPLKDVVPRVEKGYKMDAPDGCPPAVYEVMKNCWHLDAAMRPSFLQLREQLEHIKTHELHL

Structure (SMILES) | IC50 (Recombinant human Src; [3]) [µM] | IC50 (Recombinant human Src; [4]) [µM] | IC50 (Recombinant human Src; [5]) [µM] | IC50 (N12 neuronal Src variant) [µM] | IC50 (N23 neuronal Src variant) [µM] | IC50 [1] [µM] | IC50 (Csk) [µM] | osteoclastic bone resorption in vivo [2]
Cc1csc2c(NN=Cc3cccnc3)ncnc12 [Compound 27, 3-Pyridinecarboxaldehyde(7-methylthieno[3,2-d]pyrimidin-4-yl)hydrazone] | ≤ 2 | 0.37 | < 2 | 0.59 | 0.28 | 13 | – | –
Cc1csc2c(NN=Cc3cccs3)ncnc12 [Compound 29, 2-Thiophenecarboxaldehyde(7-methylthieno[3,2-d]pyrimidin-4-yl)hydrazone] | ≤ 2 | 0.95 | < 2 | 1.17 | 0.84 | – | > 182 | –
COc1ccc(C=NNc2ncnc3c(C)csc23)cc1O [Compound 51, 3-Hydroxy-4-methoxybenzaldehyde(7-methylthieno[3,2-d]pyrimidin-4-yl)hydrazone] | ≤ 2 | 0.51 | < 2 | 1.75 | 0.51 | – | – | –
C(=NNc1ncnc2cc(-c3ccccc3)sc12)c1cccnc1 [Compound 199, 3-Pyridinecarboxaldehyde(6-phenylthieno[3,2-d]pyrimidin-4-yl)hydrazone] | ≤ 2 | 0.15 | < 2 | 0.23 | 0.12 | – | > 151 | –
CO[C@H]1[C@@H](OC)C[C@H](C)[C@@H](OC)C2=CC(=O)C=C(NC(=O)/C(C)=C/C=C\[C@H](OC)[C@@H](OC(N)=O)/C(C)=C/[C@@H]1C)C2=O [Herbimycin A] | – | – | – | – | – | – | – | inhibits osteoclastic bone resorption
